Data on three molecules can be found in PMC2008813 (British Journal of Cancer, 1973).

The target of experiment [1] is T1, glucocorticoid receptor (Rattus norvegicus, UniProt P06536).
T1 construct: gene Nr3c1; native receptor in R3230AC tumour cytosol (8-9 S component)
T1 sequence (P06536 1-795): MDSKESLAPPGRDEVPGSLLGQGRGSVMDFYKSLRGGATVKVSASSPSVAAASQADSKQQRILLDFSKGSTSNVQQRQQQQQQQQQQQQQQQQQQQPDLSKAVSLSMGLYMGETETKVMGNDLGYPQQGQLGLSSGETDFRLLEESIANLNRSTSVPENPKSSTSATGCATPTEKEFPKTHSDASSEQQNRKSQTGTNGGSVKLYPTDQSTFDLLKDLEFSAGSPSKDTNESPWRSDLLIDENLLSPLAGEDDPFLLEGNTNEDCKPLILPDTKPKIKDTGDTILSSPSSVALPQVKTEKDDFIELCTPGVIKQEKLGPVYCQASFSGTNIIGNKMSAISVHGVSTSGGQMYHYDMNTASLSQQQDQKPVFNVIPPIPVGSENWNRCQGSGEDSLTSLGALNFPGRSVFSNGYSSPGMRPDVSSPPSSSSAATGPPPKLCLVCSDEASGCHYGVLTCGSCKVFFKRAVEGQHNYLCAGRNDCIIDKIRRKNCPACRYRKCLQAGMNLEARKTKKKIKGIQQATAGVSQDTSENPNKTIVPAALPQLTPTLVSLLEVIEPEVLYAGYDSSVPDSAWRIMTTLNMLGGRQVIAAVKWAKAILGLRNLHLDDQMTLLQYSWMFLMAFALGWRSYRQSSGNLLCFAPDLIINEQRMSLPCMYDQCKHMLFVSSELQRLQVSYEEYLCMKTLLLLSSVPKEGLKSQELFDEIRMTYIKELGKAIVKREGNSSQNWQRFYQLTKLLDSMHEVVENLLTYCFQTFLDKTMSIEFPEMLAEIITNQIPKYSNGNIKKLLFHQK
The experiment can be described thus: competition with [3H]-triamcinolone acetonide, sucrose gradient centrifugation. The following applies: read-out: % [3H]-triamcinolone acetonide bound at 5 umol/l.

Experiment [2] addresses T1, glucocorticoid receptor. The description is as above. The settings on record: read-out: % [3H]-triamcinolone acetonide bound at 1 umol/l.
Experiment [3] addresses T1, glucocorticoid receptor. The experiment is described as follows: competition with [3H]-triamcinolone acetonide, sucrose gradient centrifugation (weak; no effect at […]). The following applies: read-out: % [3H]-triamcinolone acetonide bound at 5 umol/l.

Turning to `C[C@]12CCC(=O)C=C1CC[C@@H]1[C@@H]2CC[C@@]2(C)[C@H]1CC[C@]2(O)C(=O)CO` [cortexolone], the activity at 5 µM in experiment [1] was 25%.
Turning to `C[C@]12C=CC(=O)C=C1CC[C@H]1[C@@H]3C[C@@H](O)[C@](O)(C(=O)CO)[C@@]3(C)C[C@H](O)[C@@]12F` [Triamcinolone], in experiment [2], the activity at 1 µM came to 14%.
As to `C[C@]12CC[C@@H]3c4ccc(O)cc4CC[C@H]3[C@@H]1CC[C@@H]2O` [Oestradiol-17β], in experiment [3], the activity at 5 µM came to 45%.
